What was measured:
[1] = biological target: T1, CAK complex (human Cdk7, human Cyclin H, MAT-1) (Homo sapiens, UniProt P50613); experiment: in vitro time-resolved-fluorescence assay for the CAK kinase activity; format: biochemical; conditions: compound 20 uM; read-out: CAK % inhib; 20 uM
T1 construct: made in house; host or cells: SF-900 insect cells co-infected with Flag-Cdk7 and Bab-Cyclin H baculoviruses
From the text: Cyclin Dependent Kinase Activating Kinase (CAK) is a complex of proteins that phosphorylates a well-conserved threonine (Thr) residue in all mammalian cyclin dependent kinases (cdks). The CAK complex can also phosphorylate several components of the transcriptional machinery, such as the C-terminal domain (CTD) of RNA polymerase II in the TFIIH transcription complex. The CAK complex localizes to the nucleus, and is composed of three proteins: Cdk7, Cyclin H, and MAT-1. The exemplified method teaches the cloning and expression CAK subunits, particularly a human Cdk7 and a human Cyclin H. The method of the present invention exemplified herein is equally applicable to the cloning and expression of any CAK subunit, such as variants, structural or functional polymorphisms of the human Cdk7 or the human Cyclin H, or their orthologs in other animals such as rat, mouse, pig, dog and monkey.
The CAK complex was purified from co-infected SF-900 insect cells at 48 hours post infection by batch immunoaffinity purification. The infected cells were pelleted by centrifugation and lysed in 1/10 of the culture volume in a solution containing 50 mM Hepes pH 7.5, 10 mM MgCl2, 1 mM DTT, 10 mM Beta-Glycerol phosphate, 20 uM Na-oVO4, 0.2 mM PMSF and 1 μg/mL each of leupeptin, aprotinin, and pepstatin on ice. Cells were mechanically lysed by trituration through a 22-gauge needle followed by sonication or alternately by nitrogen cavitation. The lysed cells were centrifuged at 50,000×G for 1 hour at 4° C. to remove debris and the supernatant was applied to 1/10 volume of prewashed Flag-M2 immunoaffinity resin (Sigma). The CAK complex, by nature of the Flag tagged Cdk7 protein, was allowed to bind to the Flag antibody of the resin overnight at 4° C. with gentle rocking. The resin was washed 4 times with 5 resin volumes of lysis buffer and the bound proteins were eluted by competition with 0.5 mg/mL Flag peptide ([…], American Peptide Co, Inc., SEQ ID NO: 16) in a total of 2 resin volumes. To remove the Flag peptide, the eluted material was applied to PD-10 gel filtration columns (Pharmacia) under conditions recommended by the manufacturer.
Measurement of CAK kinase activity was accomplished using an antibody methodology in which a Europium labeled antibody binds preferentially to serine phosphorylated GST-CTD substrate. The long-lived europium label fluorescence allows a greater signal-to-noise ratio due to the delay in reading the emission wavelength, thereby eliminating signals from immediate fluorescence and fluorescent pharmaceutical screening compounds.
The time-resolved-fluorescence assay for the CAK kinase activity is performed as follows. In a well of a black glutathione coated 96 well micro titer plate (Pierce Chemical, No. 15360), the following reagents were added: 1) 25 ul substrate solution containing 500 ng purified GST-CTD in a buffer having 50 mM Hepes pH 7.5, 10 mM MgCl2, 1 mM DTT, 0.2 mM PMSF, 40 uM Na-oVO4, and 22 uM ATP (as a background control, the buffer, including ATP but not substrate was added); 2) 2.5 ul of screening compounds in a diluent containing 30% DMSO/25 mM Hepes pH7.5 (As a control, the diluent only was added. Typically the final concentration of compound is 1 uM); and 3) 250 ng CAK enzyme complex in enzyme buffer containing 25 ul of 50 mM Hepes pH 7.5, 10 mM MgCl2, 1 mM DTT, 0.2 mM PMSF, and 40 uM Na-oVO4. The micro titer plate was shaken for 2 minutes on a titer plate shaker and allowed to incubate at 30° C. for 20 minutes.
Subsequently, Kinase Stop Solution (75 mM EDTA, 0.2 mM PMSF, 1 mM DTT, 120 uM Na oVO4 in PBS) was added (50 ul/well). The plate was shaken for 2 minutes and incubated overnight at room temperature to allow substrate binding to the wells. The plate contents were flicked out, and the wells of the plate were washed 4 times with 350 ul of wash buffer (Delphia wash buffer, Perkin-Elmer, Inc.). The plate was tapped dry. […]

[2] = biological target: T2, Focal Adhesion Kinase (full-length Flag-tagged human FAK) (Homo sapiens, UniProt Q05397); experiment: in vitro FAK ELISA kinase assay; format: biochemical; conditions: compound 10 uM; ATP 2 uM; read-out: FAK % Inhib ave: 10 uM
T2 construct: a purified recombinant full-length Flag-tagged human FAK protein; Flag; made in house; host or cells: baculovirus infected insect cells
Description: Compound effects on the tyrosine kinase activity of Focal Adhesion Kinase were assessed with an in vitro FAK ELISA kinase assay. This assay measures the incorporation of phosphate from ATP into a FAK substrate protein using an antibody specific for phospho-tyrosine.
500 ng of FAKsubstrate, a purified recombinant fusion protein of GST and a 73 amino acid region surrounding the Tyr397 human FAK autophosphorylation site, was coated in a high-protein binding polystyrene 96 well plate overnight in a buffer containing 50 mM Hepes, pH 7.5, 150 mM NaCl, 0.1 mM Na-oVO4, 0.1 mM NaF and 1 protease inhibitor tablet/10 mL (Complete Mini-EDTA-free, Roche). The next day this solution was removed and the wells were incubated with 0.2% BSA in 50 mM Hepes, pH 7.5, 150 mM NaCl, 0.2 mM PMSF for 1 hour at 30° C. to block unoccupied protein binding sites. The wells were then washed with 50 mM Hepes, pH 7.5, 150 mM NaCl, 0.1% Tween 20. The kinase reaction was performed with 25 ng/well of FAK enzyme (a purified recombinant full-length Flag-tagged human FAK protein made in baculovirus infected insect cells) in 0.1 mL of a buffer containing 25 mM Hepes, pH 7.5, 5 mM MgCl2, 0.5 mM MnCl2, 10 uM NaoVO4, 0.2 mM PMSF. Compounds were added from 30% DMSO stock solutions for a screening concentration of 10 uM or IC50 determinations from 50 uM in half-log dilutions. The reaction is initiated with addition of ATP to a final concentration of 2 uM and incubated at 30° C. for 1 hour. Following the kinase reaction step, the wells were washed and incubated with 50 ng of Horseradish Peroxidase conjugated anti-phosphotyrosine antibody (PT-66 HRP, Sigma) in 0.1 mL wash buffer for 1 hour at 30° C. Wells were then washed and 0.1 mL HRP substrate, Tetra-methyl Benzidine (Sigma) was added and the color reaction allowed to proceed for 2-3 minutes followed by the addition of 0.1 mL of 1N H2SO4 to stop the HRP reaction. Percent inhibition of FAK kinase activity was calculated by comparing compound containing wells to wells treated with diluent only. Background was subtracted from all wells and was defined as the activity of FAK using 500 ng/well of BSA as a substrate. IC50 values were obtained using Prism data analysis software.

T2 sequence (Q05397 whole entry): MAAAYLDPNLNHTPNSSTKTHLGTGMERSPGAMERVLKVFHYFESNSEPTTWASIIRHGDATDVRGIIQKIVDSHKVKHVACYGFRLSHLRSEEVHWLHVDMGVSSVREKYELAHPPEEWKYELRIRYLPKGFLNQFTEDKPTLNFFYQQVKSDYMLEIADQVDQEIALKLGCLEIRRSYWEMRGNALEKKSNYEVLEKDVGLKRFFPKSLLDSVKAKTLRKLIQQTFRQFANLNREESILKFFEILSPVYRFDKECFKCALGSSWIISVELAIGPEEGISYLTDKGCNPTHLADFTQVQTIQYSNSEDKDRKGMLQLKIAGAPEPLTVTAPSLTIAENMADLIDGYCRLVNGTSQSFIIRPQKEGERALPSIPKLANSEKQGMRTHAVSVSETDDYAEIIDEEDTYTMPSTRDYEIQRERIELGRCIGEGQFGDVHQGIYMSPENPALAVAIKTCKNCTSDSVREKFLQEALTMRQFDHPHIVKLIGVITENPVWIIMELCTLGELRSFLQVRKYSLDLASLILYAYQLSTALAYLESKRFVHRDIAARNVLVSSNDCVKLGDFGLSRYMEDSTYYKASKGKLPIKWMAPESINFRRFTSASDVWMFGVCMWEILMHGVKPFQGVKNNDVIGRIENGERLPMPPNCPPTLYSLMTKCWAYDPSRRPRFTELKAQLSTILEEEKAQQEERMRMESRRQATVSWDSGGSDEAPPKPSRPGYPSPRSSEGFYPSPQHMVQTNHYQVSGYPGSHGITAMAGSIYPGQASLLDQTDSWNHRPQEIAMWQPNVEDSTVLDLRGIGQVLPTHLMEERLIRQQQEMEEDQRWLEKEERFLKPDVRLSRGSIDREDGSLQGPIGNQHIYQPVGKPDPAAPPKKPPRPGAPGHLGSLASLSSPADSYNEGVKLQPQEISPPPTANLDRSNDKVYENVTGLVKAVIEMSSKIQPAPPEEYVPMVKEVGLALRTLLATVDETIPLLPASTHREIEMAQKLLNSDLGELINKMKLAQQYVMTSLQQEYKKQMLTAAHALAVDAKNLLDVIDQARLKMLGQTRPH
T1 sequence (P50613 with tags, fused parts or gaps): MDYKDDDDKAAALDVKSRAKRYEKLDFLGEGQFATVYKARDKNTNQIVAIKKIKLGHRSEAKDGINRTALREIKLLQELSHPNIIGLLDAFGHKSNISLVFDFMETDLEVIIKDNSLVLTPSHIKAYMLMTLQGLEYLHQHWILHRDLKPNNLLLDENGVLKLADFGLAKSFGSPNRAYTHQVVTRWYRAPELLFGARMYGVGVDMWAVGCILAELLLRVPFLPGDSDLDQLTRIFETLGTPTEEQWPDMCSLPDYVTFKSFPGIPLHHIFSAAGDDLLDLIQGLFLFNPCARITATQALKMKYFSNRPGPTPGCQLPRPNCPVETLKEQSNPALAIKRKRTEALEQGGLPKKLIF
T1 sequence (as listed by the source partner): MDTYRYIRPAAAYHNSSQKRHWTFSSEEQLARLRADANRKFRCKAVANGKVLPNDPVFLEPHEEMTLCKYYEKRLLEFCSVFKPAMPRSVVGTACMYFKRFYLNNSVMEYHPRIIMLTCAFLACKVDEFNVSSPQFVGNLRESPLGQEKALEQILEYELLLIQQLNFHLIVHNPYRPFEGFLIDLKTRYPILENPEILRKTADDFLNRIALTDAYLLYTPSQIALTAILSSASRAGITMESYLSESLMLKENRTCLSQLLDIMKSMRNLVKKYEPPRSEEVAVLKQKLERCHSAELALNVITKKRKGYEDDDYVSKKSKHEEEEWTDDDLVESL

Row | Structure (SMILES) | inhibition at 20 µM [1] [%] | inhibition at 10 µM [2] [%]
1 | CN(C1CCCCC1)S(=O)(=O)c1ccccc1Nc1ncc2nnn(-c3ccc(N4CCN(Cc5ccccc5)CC4)cc3)c2n1 [Compound 55, 2-{3-[4-(4-Benzyl-piperazin-1-yl)-phenyl]-3H-[1,2,3]triazolo[4,5-d]pyrimidin-5-ylamino}-N-cyclohexyl-N-methyl-benzene-sulfonamide] | -6.2 | 10.8
2 | NS(=O)(=O)c1ccccc1-n1nnc2cnc(Nc3ccc4[nH]ncc4c3)nc21 [Compound 45, 2-[5-(1H-Indazol-5-ylamino)-[1,2,3]triazolo[4,5-d]pyrimidin-3-yl]-benzene-sulfonamide] | 16.2 | 21.8
3 | CCCCNS(=O)(=O)c1cccc(Nc2ncc3nnn(Cc4ccccc4)c3n2)c1 [Compound 57] | 34.1 | 22
4 | CCCCNS(=O)(=O)c1cccc(-n2nnc3cnc(Nc4ccc(C(=O)NCCN(CC)CC)cc4)nc32)c1 [Compound 49] | 44.6 | 99.5
5 | O=C(NCCCN1CCCC1=O)c1cccc(Nc2ncc3nnn(-c4ccc5c(c4)CCC5)c3n2)c1 [Compound 80, 3-(3-Indan-5-yl-3H-[1,2,3]triazolo[4,5-d]pyrimidin-5-ylamino)-N-[3-(2-oxo-pyrrolidin-1-yl)-propyl]-benzamide] | 17.9 | 33.9
6 | c1cc(OCCCN2CCOCC2)ccc1Nc1ncc2nnn(-c3ccc4c(c3)CCC4)c2n1 [Compound 91, (3-Indan-5-yl-3H-[1,2,3]triazolo[4,5-d]pyrimidin-5-yl)-[4-(3-morpholin-4-yl-propoxy)-phenyl]-amine] | 48.7 | 10.4
7 | CCOC(=O)Cc1ccc(Nc2ncc3nnn(-c4ccc5c(c4)CCC5)c3n2)cc1 [Compound 25, [4-(3-Indan-5-yl-3H-[1,2,3]triazolo[4,5-d]pyrimidin-5-ylamino)-phenyl]-acetic acid ethyl ester] | 21 | 30
8 | CN1CCN(CCCNC(=O)c2cccc(Nc3ncc4nnn(-c5ccc6c(c5)CCC6)c4n3)c2)CC1 [Compound 81, 3-(3-Indan-5-yl-3H-[1,2,3]triazolo[4,5-d]pyrimidin-5-ylamino)-N-[3-(4-methyl-piperazin-1-yl)-propyl]-benzamide] | 99.7 | 58.1
9 | c1ccc(CN2CCN(c3ccc(Nc4ncc5nnn(Cc6ccccc6)c5n4)cc3)CC2)cc1 [Compound 59, [4-(4-Benzyl-piperazin-1-yl)-phenyl]-(3-benzyl-3H-[1,2,3]triazolo[4,5-d]pyrimidin-5-yl)-amine] | 47 | 25
10 | CCN(CC)CCNC(=O)c1ccc(-n2nnc3cnc(Nc4cccc(-c5nnn[nH]5)c4)nc32)cc1 [Compound 65, N-(2-Diethylamino-ethyl)-4-{5-[3-(1H-tetrazol-5-yl)-phenylamino]-[1,2,3]triazolo[4,5-d]pyrimidin-3-yl}-benzamide] | 42.7 | 54.7
11 | CNC(=O)c1cccc(Nc2ncc3nnn(-c4cccc(-c5ccnc(C)n5)c4)c3n2)c1 [Compound 37, N-Methyl-3-{3-[3-(2-methyl-pyrimidin-4-yl)-phenyl]-3H-[1,2,3]triazolo[4,5-d]pyrimidin-5-ylamino}-benzamide] | -1.1 | -7
12 | CCN(CC)CCNC(=O)c1ccc(Nc2ncc3nnn(-c4ccc(C5CCCCC5)cc4)c3n2)cc1 [Compound 83, 4-[3-(4-Cyclohexyl-phenyl)-3H-[1,2,3]triazolo[4,5-d]pyrimidin-5-ylamino]-N-(2-diethylamino-ethyl)-benzamide] | 5.45 | 28.7
13 | O=C(NCCCn1ccnc1)c1ccc(Nc2ncc3nnn(-c4ccc5c(c4)CCC5)c3n2)cc1 [Compound 74, N-(3-Imidazol-1-yl-propyl)-4-(3-indan-5-yl-3H-[1,2,3]triazolo[4,5-d]pyrimidin-5-ylamino)-benzamide] | 42.7 | 72.8
